How the values were obtained:
Type in all cases: biochemical
Conditions in all cases: one of the methods outlined in Example 11a, 11b and 11c
BTK = target: T1, BTK (Homo sapiens, UniProt Q06187); experiment: Inhibition of a panel of kinases: BTK in vitro kinase assay
T1 construct: N-terminal His6-tagged, recombinant, full-length, human BTK; His6 (N); made in house; host or cells: baculovirus / Sf21 insect cells
Protocol: (§1) Btk kinase activity is determined using a time-resolved fluorescence resonance energy transfer (TR-FRET) methodology. Measurements are performed in a reaction volume of 50 μL using 96-well assay plates. Kinase enzyme, inhibitor, ATP (at the Km for the kinase), and 1 μM peptide substrate (Biotin-AVLESEEELYSSARQ-NH2) are incubated in a reaction buffer composed of 20 mM Tris, 50 mM NaCl, MgCl2 (5-25 mM depending on the kinase), MnCl2 (0-10 mM), 1 mM DTT, 0.1 mM EDTA, 0.01% bovine serum albumin, 0.005% Tween-20, and 10% DMSO at pH 7.4 for one hour. The reaction is quenched by the addition of 1.2 equivalents of EDTA (relative to divalent cation) in 25 μL of 1× Lance buffer (Perkin-Elmer). Streptavidin-APC (Perkin-Elmer) and Eu-labeled p-Tyr100 antibody (Perkin-Elmer) in 1× Lance buffer are added in a 25 μL volume to give final concentrations of 100 nM and 2.5 nM, respectively, and the mixture is allowed to incubate for one hour. The TR-FRET signal is measured on a multimode plate reader with an excitation wavelength (λEx) of 330 nm and detection wavelengths (λEm) of 615 and 665 nm. Activity is determined by the ratio of the fluorescence at 665 nm to that at 615 nm. For each compound, enzyme activity is measured at various concentrations of compound. Negative control reactions are performed in the absence of inhibitor in replicates of six, and two no-enzyme controls are used to determine baseline fluorescence levels Inhibition constants, Ki(app), ware obtained using the program BatchKi (Kuzmic et al. (2000), Anal. Biochem. 286:45-50). IC50s are obtained according to the equation: IC50={Ki(app)/(1+[ATP]/Km^ATP)}+[E]total/2;
(§2) For all kinases, [ATP]=Km^ATP, [Btk]total=0.5 nM and [Lck]total=6 nM.
(§3) Kinase activity is measured in vitro using electrophoretic mobility shift assay. The kinase reactions are assembled in a total volume of 25 μL in 384 well plates. The reactions comprise: BTK enzyme (1 nM, N-terminal His6-tagged, recombinant, full-length, human BTK purified from baculovirus Sf21 insect cell system), inhibitor, ATP (16 μM, the apparent Km for the kinase), fluorescently labeled peptide substrate (1 μM, FAM-GEEPLYWSFPAKKK-NH2) in a reaction buffer composed of 100 mM HEPES, pH7.5, 5 mM MgCl2 1 mM DTT, 0.1% bovine serum albumin, 0.01% Triton X-100, and 1% DMSO. The reaction is incubated for one hour and is quenched by the addition of 45 μL of termination buffer (100 mM HEPES, pH7.5, 0.01% Triton X-100, 30 mM EDTA). The terminated reactions are analyzed using 12 channel LabChip® 3000 microfluidic detection instrument (Caliper Life Sciences). The enzymatic phosphorylation of the peptide results in a change in net charge, enabling electrophoretic separation of product from substrate peptide. As substrate and product peptides are separated, two peaks of fluorescence are observed. Change in the relative fluorescence intensity of the substrate and product peaks is the parameter measured, reflecting enzyme activity. In the presence of an inhibitor, the ratio between product and substrate is altered: the signal of the product decreases, while the signal of the substrate increases.
(§4) Activity in each sample is determined as the product to sum ratio (PSR): P/(S+P), where P is the peak height of the product peptide and S is the peak height of the substrate peptide. For each compound, enzyme activity is measured at various concentrations (12 concentrations of compound spaced by 3× dilution intervals). Negative control samples (0%-inhibition in the absence of inhibitor) and positive control samples (100%-inhibition, in the presence of 20 mM EDTA) are assembled in replicates of four and are used to calculate %-inhibition values for each inhibitor at each concentration. Percent inhibition (Pinh) is determined using following equation: […]

EGFR = EGFR (Homo sapiens, UniProt P00533); experiment: Inhibition of a panel of kinases: EGFR in vitro kinase assay
LCK = LCK (Homo sapiens, UniProt P06239); experiment: Inhibition of a panel of kinases: LCK in vitro kinase assay
Protocol: as §1, §2, §3, §4

T1 sequence (Q06187 whole entry): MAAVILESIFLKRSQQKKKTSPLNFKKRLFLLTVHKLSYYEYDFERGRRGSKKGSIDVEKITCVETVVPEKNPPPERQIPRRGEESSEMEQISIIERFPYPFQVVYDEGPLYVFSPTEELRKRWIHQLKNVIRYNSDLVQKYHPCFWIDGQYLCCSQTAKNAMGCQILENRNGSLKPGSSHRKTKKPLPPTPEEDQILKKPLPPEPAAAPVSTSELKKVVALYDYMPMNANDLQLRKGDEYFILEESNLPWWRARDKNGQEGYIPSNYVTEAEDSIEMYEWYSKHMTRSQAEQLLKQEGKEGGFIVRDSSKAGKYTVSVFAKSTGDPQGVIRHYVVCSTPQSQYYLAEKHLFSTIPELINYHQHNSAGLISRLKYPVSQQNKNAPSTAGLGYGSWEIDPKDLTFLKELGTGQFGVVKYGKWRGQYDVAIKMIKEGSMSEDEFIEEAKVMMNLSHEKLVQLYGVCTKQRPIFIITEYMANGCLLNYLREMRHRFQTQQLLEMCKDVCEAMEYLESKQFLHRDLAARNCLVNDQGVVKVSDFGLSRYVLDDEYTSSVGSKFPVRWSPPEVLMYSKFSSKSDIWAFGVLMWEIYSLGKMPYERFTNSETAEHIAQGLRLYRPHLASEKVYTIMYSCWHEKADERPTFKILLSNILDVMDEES
Chain of EGFR (P00533 25-1210, species assumed): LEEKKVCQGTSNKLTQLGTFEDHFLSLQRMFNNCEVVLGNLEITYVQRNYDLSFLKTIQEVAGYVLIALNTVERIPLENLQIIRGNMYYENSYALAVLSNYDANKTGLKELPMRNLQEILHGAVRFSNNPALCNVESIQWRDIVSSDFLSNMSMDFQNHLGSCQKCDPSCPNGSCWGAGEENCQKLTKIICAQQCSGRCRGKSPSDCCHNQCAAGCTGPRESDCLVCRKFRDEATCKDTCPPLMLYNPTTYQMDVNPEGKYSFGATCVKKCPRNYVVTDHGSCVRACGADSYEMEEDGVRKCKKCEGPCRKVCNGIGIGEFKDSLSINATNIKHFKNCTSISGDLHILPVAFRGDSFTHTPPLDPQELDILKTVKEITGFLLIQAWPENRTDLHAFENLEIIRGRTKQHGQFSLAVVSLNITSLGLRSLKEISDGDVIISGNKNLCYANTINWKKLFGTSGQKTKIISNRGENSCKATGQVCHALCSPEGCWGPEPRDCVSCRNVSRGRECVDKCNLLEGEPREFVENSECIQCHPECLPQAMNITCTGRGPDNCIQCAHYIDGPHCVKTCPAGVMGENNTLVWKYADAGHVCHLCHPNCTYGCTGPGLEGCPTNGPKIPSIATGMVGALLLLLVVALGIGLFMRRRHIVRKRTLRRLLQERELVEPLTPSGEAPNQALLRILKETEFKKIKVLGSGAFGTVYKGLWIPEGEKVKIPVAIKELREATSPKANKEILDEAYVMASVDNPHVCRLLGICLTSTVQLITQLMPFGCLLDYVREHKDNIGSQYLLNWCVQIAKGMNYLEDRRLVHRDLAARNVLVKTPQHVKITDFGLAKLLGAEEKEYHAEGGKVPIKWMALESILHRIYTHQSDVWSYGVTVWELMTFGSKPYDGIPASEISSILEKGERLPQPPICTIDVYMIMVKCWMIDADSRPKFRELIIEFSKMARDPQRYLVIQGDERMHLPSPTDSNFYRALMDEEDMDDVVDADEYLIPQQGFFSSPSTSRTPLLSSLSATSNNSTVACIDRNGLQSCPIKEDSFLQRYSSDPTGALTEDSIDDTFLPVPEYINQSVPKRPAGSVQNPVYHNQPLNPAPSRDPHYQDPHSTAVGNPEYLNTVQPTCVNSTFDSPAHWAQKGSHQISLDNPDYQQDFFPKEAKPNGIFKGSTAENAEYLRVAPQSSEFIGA
Chain of LCK (P06239 whole entry, species assumed): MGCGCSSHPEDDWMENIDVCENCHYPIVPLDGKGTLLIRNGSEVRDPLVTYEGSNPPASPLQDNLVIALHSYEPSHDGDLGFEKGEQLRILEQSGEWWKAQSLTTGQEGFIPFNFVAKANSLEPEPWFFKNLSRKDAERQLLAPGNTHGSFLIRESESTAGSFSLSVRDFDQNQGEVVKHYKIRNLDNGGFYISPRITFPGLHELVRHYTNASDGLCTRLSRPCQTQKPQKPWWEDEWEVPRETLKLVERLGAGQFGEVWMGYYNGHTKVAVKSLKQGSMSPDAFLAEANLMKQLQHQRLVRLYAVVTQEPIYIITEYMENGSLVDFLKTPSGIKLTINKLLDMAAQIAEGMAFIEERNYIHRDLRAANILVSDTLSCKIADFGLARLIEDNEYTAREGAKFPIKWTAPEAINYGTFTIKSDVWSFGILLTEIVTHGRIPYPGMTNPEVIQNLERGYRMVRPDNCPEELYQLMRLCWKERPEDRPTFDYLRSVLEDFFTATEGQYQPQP

Structure (SMILES)	IC50 (BTK)	IC50 (EGFR)	IC50 (LCK)
COCCOc1ccc(Nc2ncc3[nH]c(=O)n(-c4cccc(NC(=O)/C=C/CN(C)C)c4)c3n2)cc1 [Compound 6, (E)-4-(dimethylamino)-N-(3-(2-(4-(2-methoxyethoxyl)phenylamino)-8-oxo-7H-purin-9(8H)-yl)phenyl)but-2-enamide]	< 100 nM	1000 to 10000 nM	–
C=CC(=O)N(C)c1cccc(-n2c(=O)[nH]c3cnc(Nc4ccc(OCCOC)cc4)nc32)c1 [Compound 13, N-(3-(2-(4-(2-methoxyethoxyl)phenylamino)-8-oxo-7H-purin-9(8H)-yl)phenyl)-N-methylacrylamide]	< 100 nM	1000 to 10000 nM	1000 to 10000 nM
C=CC(=O)Nc1cccc(-n2c(=O)[nH]c3cnc(Nc4ccc(F)cc4)nc32)c1 [Compound 17, N-(3-(2-(4-fluorophenylamino)-8-oxo-7H-purin-9(8H)-yl)phenyl)acrylamide]	< 100 nM	100 to 1000 nM	> 10000 nM
CN(C)C/C=C/C(=O)N1CC(n2c(=O)[nH]c3cnc(Nc4ccc(F)cc4)nc32)C1 [Compound 23, (E)-9-(1-(4-(dimethylamino)but-2-enoyl)azetidin-3-yl)-2-(4-fluorophenylamino)-7H-purin-8(9H)-one]	100 to 1000 nM	> 10000 nM	–

Results, then the molecule that gave them:

IC50 (BTK)	IC50 (EGFR)	IC50 (LCK)	Structure (SMILES)
100 to 1000 nM	1000 to 10000 nM	1000 to 10000 nM	CN(C)C/C=C/C(=O)N1CCC[C@@H](n2c(=O)[nH]c3cnc(Nc4ccc(F)cc4)nc32)C1 [Compound 29, (R,E)-9-(1-(4-(dimethylamino)but-2-enoyl)piperidin-3-yl)-2-(4-fluorophenylamino)-7H-purin-8(9H)-one]
100 to 1000 nM	> 10000 nM	1000 to 10000 nM	CN(C)C/C=C/C(=O)N1CCC(n2c(=O)[nH]c3cnc(Nc4ccc(F)cc4)nc32)CC1 [Compound 35, (E)-9-(1-(4-(dimethylamino)but-2-enoyl)piperidin-4-yl)-2-(4-fluorophenylamino)-7H-purin-8(9H)-one]
< 100 nM	1000 to 10000 nM	> 10000 nM	C=CC(=O)Nc1cccc(-n2c(=O)[nH]c3cnc(Nc4ccc(OCCOC)cc4)nc32)c1 [Compound 43, N-(3-(2-(4-(2-methoxyethoxyl)phenylamino)-8-oxo-7H-purin-9(8H)-yl)phenyl)acrylamide]
< 100 nM	1000 to 10000 nM	1000 to 10000 nM	CN(C)C/C=C/C(=O)Nc1cccc(-n2c(=O)[nH]c3cnc(Nc4ccc(F)cc4)nc32)c1 [Compound 48, (E)-4-(dimethylamino)-N-(3-(2-(4-fluorophenylamino)-8-oxo-7H-purin-9(8H)-yl)phenyl)but-2-enamide]
< 100 nM	1000 to 10000 nM	100 to 1000 nM	C=CC(=O)Nc1cccc(-c2n[nH]c3cnc(Nc4ccc(OCCOC)cc4)nc23)c1 [Compound 54, N-(3-(5-(4-(2-methoxyethoxyl)phenylamino)-1H-pyrazolo[4,3-d]pyrimidin-3-yl)phenyl)acrylamide]
100 to 1000 nM	1000 to 10000 nM	1000 to 10000 nM	C=CC(=O)Nc1cccc(-c2c[nH]c3cnc(Nc4ccc(OCCOC)cc4)nc23)c1 [Compound 60, N-(3-(2-(4-(2-methoxyethoxyl)phenylamino)-5H-pyrrolo[3,2-d]pyrimidin-7-yl)phenyl)acrylamide]
